Measurements: patent publication US6914045B2, “Glycopeptide antibiotics” (Wyeth Holdings Corporation, priority 2001, dated 2005)
≈ marks a conversion by molar mass, not a printed value.

Legend:
Test in all cases: in vitro antibacterial evaluation, MIC by broth dilution
Assay type in all cases: cell-based
Enterococcus sp. = conditions: broth dilution, 18 hours at 35° C.; for MIC Enterococcus faecalis (ATCC 29212): strain ATCC 29212; for MIC Enterococcus faecium (GC 2243): strain GC 2243; for MIC Enterococcus faecalis (GC 4552): strain GC 4552; for MIC Enterococcus faecalis (GC 4553): strain GC 4553; for MIC Enterococcus faecalis (GC 4554): strain GC 4554; for MIC Enterococcus faecium (GC 4556): strain GC 4556; for MIC Enterococcus faecium (GC 4557): strain GC 4557; for MIC Enterococcus avium (GC 4558): strain GC 4558; for MIC Enterococcus faecalis (GC 6189): strain GC 6189
Procedure, shortened: (§1)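 Following National Committee for Clinical Laboratory Standards recommendations (M7-A2), susceptibility was measured by dilution in Muller-Hinton II […]. Bacteria were seeded at 5×10^5 CFU/mL against compound concentrations from 64 down to 0.06 μg/mL.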

Escherichia coli = system: Escherichia coli
Procedure, shortened: as §1

Staphylococcus sp. = conditions: broth dilution, 18 hours at 35° C.; for MIC Staphylococcus aureus (GC 1131): strain GC 1131
Procedure, shortened: as §1

Streptococcus sp. = conditions: broth dilution, 18 hours at 35° C.
Procedure, shortened: as §1

MIC Enterococcus faecalis (GC 2242) (Enterococcus sp.; Enterococcus faecalis (GC 2242)): 64 µg/mL (≈ 43.8 µM)
MIC Enterococcus faecalis (GC 2691) (Enterococcus sp.; Enterococcus faecalis (GC 2691)): >64 µg/mL
MIC Enterococcus faecalis (GC 3059) (Enterococcus sp.; Enterococcus faecalis (GC 3059)): >64 µg/mL
MIC Enterococcus faecalis (ATCC 29212) (Enterococcus sp.; inoculum 5×10^5 CFU/mL): >64 µg/mL
MIC Enterococcus faecium (GC 2243) (Enterococcus sp.; inoculum 5×10^5 CFU/mL): 64 µg/mL (≈ 43.8 µM)
MIC Enterococcus faecalis (GC 4552) (Enterococcus sp.; inoculum 5×10^5 CFU/mL): >64 µg/mL
MIC Enterococcus faecalis (GC 4553) (Enterococcus sp.; inoculum 5×10^5 CFU/mL): >64 µg/mL
MIC Enterococcus faecalis (GC 4554) (Enterococcus sp.; inoculum 5×10^5 CFU/mL): >64 µg/mL
MIC Enterococcus faecium (GC 4556) (Enterococcus sp.; inoculum 5×10^5 CFU/mL): >64 µg/mL
MIC Enterococcus faecium (GC 4557) (Enterococcus sp.; inoculum 5×10^5 CFU/mL): 8 µg/mL (≈ 5.47 µM)
MIC Enterococcus avium (GC 4558) (Enterococcus sp.; inoculum 5×10^5 CFU/mL): 64 µg/mL (≈ 43.8 µM)
MIC Enterococcus faecalis (GC 6189) (Enterococcus sp.; inoculum 5×10^5 CFU/mL): >64 µg/mL
MIC Enterococcus faecalis (ATCC 29212) (Enterococcus sp.): >64 µg/mL
MIC Enterococcus faecalis (GC 2242) (Enterococcus sp.; strain GC 2242): 64 µg/mL (≈ 43.8 µM)
MIC Enterococcus faecium (GC 2243) (Enterococcus sp.): 64 µg/mL (≈ 43.8 µM)
MIC Enterococcus faecalis (GC 2691) (Enterococcus sp.; strain GC 2691): >64 µg/mL
MIC Enterococcus faecalis (GC 3059) (Enterococcus sp.; strain GC 3059): >64 µg/mL
MIC Enterococcus faecalis (GC 4552) (Enterococcus sp.): >64 µg/mL
MIC Enterococcus faecalis (GC 4553) (Enterococcus sp.): >64 µg/mL
MIC Enterococcus faecalis (GC 4554) (Enterococcus sp.): >64 µg/mL
MIC Enterococcus faecium (GC 4556) (Enterococcus sp.): >64 µg/mL
MIC Enterococcus faecium (GC 4557) (Enterococcus sp.): 8 µg/mL (≈ 5.47 µM)
MIC Enterococcus avium (GC 4558) (Enterococcus sp.): 64 µg/mL (≈ 43.8 µM)
MIC Enterococcus faecalis (GC 6189) (Enterococcus sp.): >64 µg/mL
MIC Escherichia coli (ATCC 25922) (Escherichia coli; strain ATCC 25922, 18 hours at 35° C.): >64 µg/mL
MIC Escherichia coli (GC 4559) (Escherichia coli; strain GC 4559, 18 hours at 35° C.): >64 µg/mL
MIC Staphylococcus aureus (GC 1131) (Staphylococcus sp.; inoculum 5×10^5 CFU/mL): 32 µg/mL (≈ 21.9 µM)
MIC Staphylococcus aureus (ATCC 29213) (Staphylococcus sp.; strain ATCC 29213): 32 µg/mL (≈ 21.9 µM)
MIC Staphylococcus aureus (GC 1131) (Staphylococcus sp.): 32 µg/mL (≈ 21.9 µM)
MIC Staphylococcus aureus (GC 3051) (Staphylococcus sp.; strain GC 3051): 16 µg/mL (≈ 10.9 µM)
MIC Staphylococcus aureus (GC 3053) (Staphylococcus sp.; strain GC 3053): 32 µg/mL (≈ 21.9 µM)
MIC Staphylococcus aureus (GC 4541) (Staphylococcus sp.; strain GC 4541): 16 µg/mL (≈ 10.9 µM)
MIC Staphylococcus aureus (GC 4542) (Staphylococcus sp.; strain GC 4542): 32 µg/mL (≈ 21.9 µM)
MIC Staphylococcus aureus-SMITH (GC 4543) (Staphylococcus sp.; strain GC 4543): 16 µg/mL (≈ 10.9 µM)
MIC Staphylococcus aureus (GC 4544) (Staphylococcus sp.; strain GC 4544): 32 µg/mL (≈ 21.9 µM)
MIC Staphylococcus aureus (GC 4545) (Staphylococcus sp.; strain GC 4545): 16 µg/mL (≈ 10.9 µM)
MIC Coagulase Negative Staphylococcus (GC 4547) (Staphylococcus sp.; strain GC 4547): 16 µg/mL (≈ 10.9 µM)
MIC Coagulase Negative Staphylococcus (GC 4548) (Staphylococcus sp.; strain GC 4548): 8 µg/mL (≈ 5.47 µM)
MIC Coagulase Negative Staphylococcus (GC 4549) (Staphylococcus sp.; strain GC 4549): 8 µg/mL (≈ 5.47 µM)
MIC Coagulase Negative Staphylococcus (GC 4551) (Staphylococcus sp.; strain GC 4551): 32 µg/mL (≈ 21.9 µM)
MIC Coagulase Negative Staphylococcus (GC 6257) (Staphylococcus sp.; strain GC 6257): 4 µg/mL (≈ 2.74 µM)
MIC Staphylococcus aureus-SMITH (GC 4543) (Staphylococcus sp.; strain SMITH GC 4543): 16 µg/mL (≈ 10.9 µM)
MIC Streptococcus agalactiae (GC 4564) (Streptococcus sp.; Streptococcus agalactiae (GC 4564)): 16 µg/mL (≈ 10.9 µM)
MIC Streptococcus pneumoniae (ATCC 6301) (Streptococcus sp.; Streptococcus pneumoniae (ATCC 6301)): 4 µg/mL (≈ 2.74 µM)
MIC Streptococcus pneumoniae (GC 1894) (Streptococcus sp.; Streptococcus pneumoniae (GC 1894)): 4 µg/mL (≈ 2.74 µM)
MIC Streptococcus pneumoniae (GC 4565) (Streptococcus sp.; Streptococcus pneumoniae (GC 4565)): 4 µg/mL (≈ 2.74 µM)
MIC Streptococcus pyogenes (GC 4563) (Streptococcus sp.; Streptococcus pyogenes (GC 4563)): 8 µg/mL (≈ 5.47 µM)
MIC Streptococcus pneumoniae (ATCC 6301) (Streptococcus sp.; strain ATCC 6301): 4 µg/mL (≈ 2.74 µM)
MIC Streptococcus pneumoniae (GC 1894) (Streptococcus sp.; strain GC 1894): 4 µg/mL (≈ 2.74 µM)
MIC Streptococcus pyogenes (GC 4563) (Streptococcus sp.; strain GC 4563): 8 µg/mL (≈ 5.47 µM)
MIC Streptococcus agalactiae (GC 4564) (Streptococcus sp.; strain GC 4564): 16 µg/mL (≈ 10.9 µM)
MIC Streptococcus pneumoniae (GC 4565) (Streptococcus sp.; strain GC 4565): 4 µg/mL (≈ 2.74 µM)
SMILES: CC(c1ccccc1)C1NC(=O)CNC(=O)C(CO)NC(=O)C(C(O)C2CNC(=N)N2C2OC(CO)C(O)C(O)C2O)NC(=O)C(C(O)C2CNC(=N)N2)NC(=O)C(Cc2ccc(OC3OC(CO)C(OC4OC5COC(c6ccc(S(C)(=O)=O)cc6)OC5C(O)C4O)C(O)C3O)cc2)NC1=O (centres unmarked) [Example 157]
MIC Staphylococcus haemolyticus (GC 4546) (Staphylococcus sp.; strain GC 4546): 16 µg/mL (≈ 10.9 µM)
